The source of these data is patent US9880151B2, “Method of determining, identifying or isolating cell-penetrating peptides” (Phylogica Limited, priority 2011, dated 2018).

The test system of assay [1] is bEnd.3 mouse brain endothelial cells. The assay is described as follows: Fluorescent microscopy assessment of CPP internalisation. It counts as cell-based. As to conditions: 10 μM, CM and SF (FIGS. 25-28). As for the experimental part:
(§1) CHO-K1 cells are seeded at 70,000 cells/slide chamber, and bEnd.3 cells are seeded at 40,000 cells/slide chamber. Cells are cultured for 24 h at 37° C. in 5% CO2, washed with PBS 1×, and FITC-labeled peptide (10 uM) is added to cells in 10% FBS (CM).
(§2) Alternatively, cells in serum-free (SF) medium are incubated for 1 h at 37° C., washed twice in PBS, fixed in 10% formaladehyde/PBS (15 min at RT), washed as before, incubated in, 300 nM DAPI/PBS solution for […] at RT, washed as before, and mounted onto slides.

Assay [2] concerns CHO-K1 cells. The description is as above. It counts as cell-based, Chinese hamster. As to conditions: 10 μM, CM and SF (FIGS. 30-32). As for the experimental part: as §1, §2
Assay [3] relates to CHO-K1 cells. Kind of assay: Flow cytometry analysis of FITC-labelled peptide cell binding/uptake. The class given is cell-based, Chinese hamster. To be noted: for cellular uptake into CHO-K1: 37° C. and 4° C. (FIG. 34); for cellular uptake into CHO-K1 cells measured using FITC: FIG. 36. As for the experimental part: (§3) CHO-K1 and bEnd.3 cells were seeded in 6-well plates at 5×10^5 cells/well in culture medium and incubated for 24 h at 37° C. in 5% CO2. Culture media was aspirated, and cells washed once with PBS to remove debris. Then, 1 mL of media containing 10 or 20 μM of FITC-peptide was added to wells, and plates were incubated for 1 h at 37° C. in 5% CO2. The cells were washed twice with 1×PBS, and 1 mL of 0.25% trypsin/EDTA added per well, and incubated at 37° C. for 4 min. Reactions were stopped by dilution of trypsin with 2 mL complete media. Cells were dislodged by gentle titration and transferred to flow cytometry tubes, washed twice with FACS buffer (0.5% BSA/0.01% NaN3/PBS), collected by centrifugation for 4 min at 1500 rpm, and resuspended in 0.3 mL fixing buffer solution (1% formaldehyde in PBS). Cells were filtered through gauze before reading on BD LSRII flow cytometer.
(§4) Cells were seeded in 6-well plates and then grown for 24 hours before peptide was added for 1 hour at 37° C. Cells were harvested via trypsinization, and then assayed for peptide internalization/binding by flow cytometry.
(§5) The flow cytometry procedure was initially optimized using fluorophore-labelled TAT-PYC38. Subsequently, FITC-labelled peptides from the Phase 1-Pilot and Phase 2-CPP screens were assessed at 10 μM concentrations for internalization using CHO and bEnd3 cells. Peptides that scored as positive in the cell binding/internalization assay were subjected to further analysis using different temperatures and cell lines to determine cell selectivity. The cell-binding/uptake activity of pure (>85% purity) and Pepset (purity ranges from 40-80%) peptides was also compared to determine whether peptide purity affected CPP activity.

Another assay has as its system bEnd.3 cells. Described as above. It counts as cell-based, mouse. As to conditions: FIG. 36. As for the experimental part: as §3, §4, §5
The test system of a further assay is CHO or bEnd.3 cells. Kind of assay: Live confocal microscopy screen for cell internalization, cell line not specified per result. The class given is cell-based. As to conditions: for cellular uptake by confocal microscopy: 10 μM (FIG. 20). As for the experimental part:
(§6) bEnd.3 and CHO-K1 cells were seeded at 3×10^4/well and 5×10^4/well respectively, on 8-well Lab-Tek H chambered coverglass slides. Slides were incubated for 24 h prior to analysis at 37° C. at 5% CO2. Wells were washed twice with medium containing 1% FBS, and 5-10 μM FITC-labeled peptide in 1% FBS media was added to wells, and cells were imaged at 30 and 60 minutes later.
(§7) Briefly, bEnd.3 and CHO cells were seeded at subconfluent density (˜50%) on 8-well chambered coverglasses, incubated for 24 hrs, washed with culture medium containing 1% FBS and then incubated with 5-30 μM of labelled peptide for 1 hr in culture media containing 1% FBS before being imaged using confocal microscopy.

Assay [4] concerns primary cortical neuronal cultures. Kind of assay: Glutamate excitotoxicity assay, neuroprotection by CPP-PYC36 fusions. As to conditions: PYC36 alone, data not shown. The class given is cell-based. As for the experimental part: Peptides ID 4052 (SEQ ID NO: 16; Table 10), Peptides ID 4052a (SEQ ID NO: 26; Table 10), and TAT peptide ([…]; SEQ ID NO: 28) were each produced as fusions to the neuroprotective peptide PYC36 ([…]; SEQ ID NO: 29) described in WO 2008/034161. The fusion peptides were assayed for their ability to confer survival on primary cortical neuronal cultures by glutamate excitotoxicity assay as described in Example of WO 2008/034161.

Assay [5] has as its system CHO-K1 cells. Kind of assay: Live confocal microscopy of FITC-labelled peptides. It counts as cell-based, Chinese hamster. To be noted: 60 minutes (FIG. 18). As for the experimental part:
as §6, §7

For the next assay, the system named is cells. Kind of assay: Flow cytometry optimisation with FITC-labelled PYC38 (+/-TAT). To be noted: FITC-labelled peptide. It counts as cell-based. As for the experimental part: as §4, §5
In general terms: Flow cytometry measures light scatter and fluorescence of single cells or particles in a stream.

The next assay concerns endosome. To be noted: Sugita et al. 2008; cited from earlier work.

In the case of 0045 (PFLKRVPACLRLRR) [compound 0045], the “internalisation into bEnd.3 cells, fluorescent microscopy” value (shortened to “internalisation into bEnd.3 cells”) in [1] is “evidence for internalisation of the peptide into bEnd.3 cells”. Also, the “internalisation into CHO-K1 cells, fluorescent microscopy” value (shortened to “internalisation into CHO-K1 cells”) in the assay on CHO-K1 cells [2] is reported as “evidence for internalisation of the peptide into CHO-K1 cells”. The “cellular uptake into CHO-K1” value in the assay on CHO-K1 cells [3] is listed as “high uptake”.

4052 (WGCCGRSSRRRRTR) [compound 4052]: the “cellular uptake into bEnd.3 cells measured using FITC” value (shortened to “cellular uptake into bEnd.3 cells”) in the assay on bEnd.3 cells is recorded as “high uptake”. Also, the “cellular uptake into CHO-K1 cells measured using FITC” value (shortened to “cellular uptake into CHO-K1 cells”) in the assay with CHO-K1 cells [3] is “high uptake”.

As to “5008 (PYSRPHVQLWYPNRESCRSLIRSLGP) [compound 5008]”, the “internalisation into bEnd.3 cells” value in assay [1] is on record as “evidence for internalisation of the peptide into bEnd.3 cells”. In addition, in the assay with bEnd.3 cells, the “cellular uptake into bEnd.3 cells” value is given as “high uptake”. The “internalisation into CHO-K1 cells” value in the assay with CHO-K1 cells [2] is listed as “evidence for internalisation of the peptide into CHO-K1 cells”. Moreover, the “cellular uptake into CHO-K1 cells” value in the assay with CHO-K1 cells [3] was “high uptake”.

Consider “9170 (RCGRASRCRVRWMRRRRI) [compound 9170]”, for which, in assay [1], the “internalisation into bEnd.3 cells” value is given as “evidence for internalisation of the peptide into bEnd.3 cells”. In addition, the “cellular uptake into bEnd.3 cells” value in the assay on bEnd.3 cells is “high uptake”. Further, the “internalisation into CHO-K1 cells” value in the assay with CHO-K1 cells [2] was “evidence for internalisation of the peptide into CHO-K1 cells”. Besides, in the assay on CHO-K1 cells [3], the “cellular uptake into CHO-K1” value was “high uptake” and the “cellular uptake into CHO-K1 cells” value is “high uptake”. The “cellular uptake by confocal microscopy” value in the assay on CHO or bEnd.3 cells was “evidence for cellular uptake”.

Turning to “GLQGRRRQGYQSIKP (GLQRRRQGYQSIKP) [PYC36, neuroprotective peptide described in WO 2008/034161]”, the “neuroprotective activity following glutamate induced neural damage” value in [4] was “negligible neuroprotective activity”.

As to “RFRCGRRKWQIGS [Peptide ID 9072, arginine-rich TAT-like CPP from non-coding region]”, the “uptake into CHO-K1 cells, flow cytometry curve” value in the assay on CHO-K1 cells [3] (10 μM, 37° C., vs PYC38-TAT positive control (FIG. 15)) is recorded as “largely overlaps with that for the positive control”. In addition, the “cellular uptake by confocal microscopy” value in the assay with CHO or bEnd.3 cells was “evidence for cellular uptake”.

Regarding “WTISSRRRKVNRAC [Peptide ID 4063, arginine-rich TAT-like CPP from non-coding region]”, the results for the “uptake into CHO-K1 cells by confocal microscopy” value with CHO-K1 cells [5] (10 μM peptide) and with CHO-K1 cells [5] (30 μM peptide) were “evidence of the uptake” and “uptake”, respectively.

Turning to “rhaplarGswrGqpqqGpqrrGqlGG [PYC38, reference compound]”, the “uptake into CHO-K1 cells by confocal microscopy” value in the assay on CHO-K1 cells [5] (5 μM peptide) is listed as “no detectable evidence of uptake”. Besides, in the assay on CHO or bEnd.3 cells (5-30 μM labelled peptide, 1 hr), the “uptake by confocal microscopy, control peptides” value was “no uptake”. Besides, the “level of cell binding/internalization, PYC38-TAT versus PYC38” value in the assay with cells is on record as “significantly lower”.

Regarding “transferrin: named in cited endosome escape study”, the “efficiency of endosome escape” value in the assay on endosome is given as “low”.
